From patent US20220145303A1, “FRAGILE X MENTAL RETARDATION PROTEIN INTERFERING OLIGONUCLEOTIDES AND METHODS OF USING SAME” (Nogra Pharma Limited, priority 2019, published 2022)

Assays:
[1] = test system: E-cadherin; experiment: Western blot of E-cadherin in HCT-116 cells; format: cell-based, human; conditions: HCT-116, AS 0.5 nM, 48 hours, vs untreated or sense, FIGS. 8E, 8F
Protocol: (§1) To determine whether FMRP regulates levels of E-cadherin and/or β-catenin, key proteins associated with cellular adhesion, cytoskeletal remodeling, and inhibition of tumor migration and invasion, cells were left untreated (U), or transfected with either FMRP sense (S) oligonucleotide (final concentration 0.5 nM) or FMRP antisense (AS) oligonucleotide (final concentration 0.5 nM) for 48 hours.
(§2) Recent studies have described a novel tumor suppressor function of MCC in the regulation of E-cadherin/β-catenin complex-mediated cell-cell adhesion in colorectal cells. To investigate whether MCC mediates the observed increase of E-cadherin and β-catenin expression in HCT-116 cells transfected with antisense FMRP oligonucleotide (e.g., FIGS. 8E-8G), cells were left untreated (U) or transfected with sense FMRP oligonucleotide (final concentration 0.5 nM), or antisense FMRP oligonucleotide (final concentration 0.5 nM), and/or control siRNA (siRNA Ctrl) or siRNA specific for MCC (siRNA MCC) for 48 hours.

[2] = test system: β-catenin; experiment: Western blot of β-catenin in HCT-116 cells; format: cell-based, human; conditions: HCT-116, AS 0.5 nM, 48 hours, vs untreated or sense, FIGS. 8E, 8G
Protocol: as §1, §2

[3] = test system: RIPK3; experiment: Western blot of phospho-RIPK3 after FMRP antisense treatment; format: cell-based; conditions: human CRC cell lines, 24 hours, FIGS. 6A, 6C
Protocol: (§3) To confirm the association of FMRP with components of the necroptosis pathway, cells were left untreated or transfected with either FMRP antisense oligonucleotide (final concentration 0.5 nM and 100 nM) or FMRP sense oligonucleotide (final concentration 100 nM); incubated with a pMLKL inhibitor (necrosulfonamide, NSA; final concentration 1 μM)(Calbiochem); or a pRIPK1 inhibitor (necrostatinl, NEC1; final concentration 10 μM)(Cayman Chemical, Ann Arbor, Mich. USA). After 24 hours cells were collected and analyzed by Western blot, or stained with FITC-Annexin V and PI for flow cytometry analysis, as previously described in Examples 1-3.

[4] = test system: RIPK1; experiment: Western blot of RIPK1 and phospho-RIPK1 after FMRP antisense treatment; format: cell-based; conditions: human CRC cell lines, 24 hours
Protocol: as §3

[5] = test system: caspase 8; experiment: Activated caspase 8 by flow cytometry in CRC cells; format: cell-based, human; conditions: oligonucleotide 100 nM 36 hours, FIGS. 4A, 4B
Protocol: (§4) Cells were transfected with either FMRP antisense oligonucleotide (AS)(final concentration 0.5 nM and 100 nM) or FMRP sense oligonucleotide (S)(final concentration 100 nM). After 24 hours (FIGS. 3E, 3F, 3J and 3K) or 48 hours (FIG. 3H), cells were collected, washed two times in Annexin V (AV) buffer, stained with FITC-AnnexinV (final dilution 1:100; Immunotools, Friesoythe, Germany) according to the manufacturer's instructions, and incubated with […] of propidium iodide (PI) for 30 min at 4° C. Cells were also transfected with either FMRP sense oligonucleotide or FMRP AS oligonucleotide (final concentration 100 nM) for 36 hours and analyzed for activated caspase 3 and caspase 8. As positive and negative controls, cells were treated, respectively, with staurosporin (final concentration 1 μM, Sigma-Aldrich Milan, Italy) or Q-VD-OPh (a pan-caspase inhibitor; final concentration 1 μM) (R&D Systems, Inc, Minneapolis, Minn.). Additionally, 36 hours (FIGS. 4F and 4G) or 48 hours post-transfection (FIGS. 4D and 4E), cells were pulsed with […] bromodeoxyuridine for 60 minutes, fixed in 70% cold ethanol, and stored at −20° C. for at least 3 hours. […] Fluorescence was measured using Gallios Flow Cytometer (Beckman Coulter, Life Sciences, Pasadena, Calif., USA) and analyzed using Kaluza software (Beckman Coulter). […]

[6] = test system: MLKL; experiment: Western blot of phospho-MLKL after FMRP antisense treatment; format: cell-based; conditions: human CRC cell lines, 24 hours, FIGS. 6A, 6D
Protocol: as §3

[7] = test system: caspase 3; experiment: Activated caspase 3 by flow cytometry in CRC cells; format: cell-based, human; conditions: oligonucleotide 100 nM 36 hours, staurosporin 1 μM, FIGS. 4A, 4B
Protocol: Immunotools, Friesoythe, Germany) according to the manufacturer's instructions, and incubated with […] of propidium iodide (PI) for 30 min at 4° C. Cells were also transfected with either FMRP sense oligonucleotide or FMRP AS oligonucleotide (final concentration 100 nM) for 36 hours and analyzed for activated caspase 3 and caspase 8. […] Additionally, 36 hours (FIGS. 4F and 4G) or 48 hours post-transfection (FIGS. 4D and 4E), cells were pulsed with […] bromodeoxyuridine for 60 minutes, fixed in 70% cold ethanol, and stored at −20° C. for at least 3 hours. […] Fluorescence was measured using Gallios Flow Cytometer (Beckman Coulter, Life Sciences, Pasadena, Calif., USA) and analyzed using Kaluza software (Beckman Coulter). Viable cells were considered as AV^−/PI^− cells.

[8] = test system: HCT-116 cells; experiment: Cell death by AnnexinV/PI flow cytometry in HCT-116 cells; format: cell-based, human; conditions: 48 hours, AS 0.5 nM and 100 nM, FIG. 3H
Protocol: as §4

[9] = test system: HCT-116 cells; experiment: Invasion across Matrigel-coated Transwell inserts; format: cell-based, human; conditions: HCT-116, AS 0.5 nM, 48 hours, vs untreated or sense, FIGS. 8C, 8D
Protocol: To investigate the role of FMRP in tumor cell migration and invasion, HCT-116 cells were seeded in each side of an Ibidi® culture insert and grown to confluence then left untreated (U) or transfected with sense FMRP oligonucleotide (S) (final concentration 0.5 nM) or antisense FMRP oligonucleotide (AS) (final concentration 0.5 nM). Additionally, HCT-116 cells were seeded in Transwell® inserts precoated with Matrigel®, and either left untreated (U) or transfected with sense oligonucleotide (S) (final concentration 100 nM) or antisense FMRP oligonucleotide (AS) (final concentration 0.5 nM) for 48 hours.

[10] = test system: MCC; experiment: Western blot of MCC in HCT-116 cells; format: cell-based, human; conditions: HCT-116, AS 0.5 nM, 48 hours, vs untreated or sense, FIGS. 9A, 9B
Protocol: To investigate whether FMRP regulates MCC, a protein known to interact with the E-cadherin/β-catenin complex, HCT-116 cells were left untreated (U) or transfected with sense FMRP oligonucleotide (S) (final concentration 0.5 nM) or antisense FMRP oligonucleotide (AS) (final concentration 0.5 nM) for 48 hours.

[11] = test system: DLD-1 cells; experiment: Cell death by AnnexinV/PI flow cytometry in DLD-1 cells; format: cell-based, human; conditions: 24 hours, AS 0.5 nM and 100 nM, FIGS. 3E, 3F
Protocol: as §4

Substance: 5′-TCCACCACCAGCTCCTCCAT-3′ (all phosphorothioate, sugars by position and methylation of C not given here) [FMRP antisense oligonucleotide, Phosphorothioate single-stranded antisense oligonucleotides complementary to human FMRP]
- E-cadherin protein expression [1]: significantly increased
- β-catenin protein expression [2]: significantly increased
- phosphorylation of RIPK3 [3]: increased phosphorylation
- total protein expression levels of RIPK1 ([4]; AS 0.5 nM and 100 nM, FIG. 6A): increased the total protein expression levels of RIPK1
- phosphorylation of RIPK1 ([4]; FIGS. 6A, 6B): increased phosphorylation
- percentage of activated caspase 8-positive cells [5]: did not alter
- phosphorylation of MLKL [6]: increased phosphorylation
- percentage of activated caspase 3-positive cells [7]: did not alter
- number of AnnexinV+ or AnnexinV+ PI+ cells [8]: neither HCT-116 cells nor HCRC-1ct cells treated with FMRP antisense oligonucleotide exhibited an increased number
- number of cells migrating across Matrigel-coated Transwell insert [9]: significantly reduced migration
- MCC protein expression [10]: significantly increased expression of MCC
- number of AnnexinV+ or AnnexinV+ PI+ cells [11]: increased number of AnnexinV^+ or AnnexinV^+ Pt cells
